Values after ≈ are worked out from the molar mass of the structure shown. Where two headings read alike, the source gives them in different places.
Tests used:
[1] = cited from earlier work
[2] = in vitro; settings: human, CC50 (μg/mL)
[3] = tested on: Staphylococcus aureus strain LMG15975; test: MIC by broth micro-dilution, AM3/PBS 1:1; assay type: cell-based
Method: (§1) At first (Table 1), MIC is determined by broth micro-dilution method. The test medium is Antibiotic Medium 3 (AM3; Difco Ltd) mixed with Phosphate Buffered Saline (PBS) in proportions 1:1. Selected MIC values are verified using cation-adjusted Mueller Hinton Broth (MHB; BD). Cell concentration of tested pathogen is adjusted to between 3 and 5×10^5 cells per ml. To verify cell concentration of tested pathogen, viable cell counts are performed directly after each MIC-test by dilution method with PBS as a dilution solvent. Cells are counted on the agar plates with 50% strength Vegetable Peptone Broth (50% VPB; Oxoid Ltd) after 16 to 20 h of incubation at 37° C.
(§2) Cells of pathogen suspended in test medium are distributed to the wells and the plates are incubated for 16 to 20 h at 37° C. Negative controls are wells with the test medium only and positive controls are wells with the pathogen in test medium. The MIC is defined as the lowest concentration of each compound with no visible growth of pathogen.
Example compounds of formula I were examined for antibacterial activity against the Gram-positive bacterium Staphylococcus aureus strain LMG15975 using the above described method (Table 1).

[4] = Cytotoxicity assay, WST-8; settings: human, HepG2 cells, CC50 (μg/mL)
[5] = tested on: A. baumannii; test: MIC by broth micro-dilution; assay type: cell-based; settings: Acinetobacter baumannii, A. baumannii (G−), Table 2; read-out: MIC (μg/ml) A. baumannii
Method: as §1, §2

[6] = tested on: Bacillus cereus; test: MIC by broth micro-dilution; assay type: cell-based; settings: Table 4, read-out: MIC (μg/ml) B. cereus
Method: as §1, §2

[7] = tested on: S. aureus; test: Antimicrobial Susceptibility Test by Broth Microdilution, M07-A9 CLSI; assay type: cell-based; settings: Staphylococcus aureus
[8] = tested on: E. faecium; test: as above; assay type: cell-based; settings: Enterococcus faecium; E. faecium 7, Vancomycin-resistant, Table 5; read-out: MIC
[9] = tested on: E. faecalis; test: as above; assay type: cell-based; settings: Enterococcus faecalis
[10] = tested on: S. epidermidis; test: as above; assay type: cell-based; settings: Staphylococcus epidermidis
[11] = tested on: mupirocin-resistant strains of Staphylococcus aureus; test: MIC against mupirocin-resistant strains; assay type: cell-based; settings: Staphylococcus aureus; all 4 strains (V55, V86, V308, V321); read-out: MIC values for mupirocin
Method: as §1, §2

[12] = reference markers for Caco-2 assay
[13] = LMG15975, S. aureus LMG15975, Table 1, read-out: MIC
[14] = LMG15975, S. aureus LMG15975, Table 1, read-out: MIC (μg/ml)
[15] = LMG15975, S. aureus (G+), Table 2, read-out: MIC (μg/ml) S. aureus
[16] = ATCC29213, S. aureus ATCC29213, QC strain, Table 5
[17] = S. aureus 7280, Methicillin-resistant
[18] = S. aureus MO17, Methicillin-sensitive, Table 5
[19] = S. aureus PICI, Methicillin-resistant, Table 5
[20] = LMG15975, S. aureus LMG 15975 (SLU), Methicillin-resistant, Table 5, read-out: MIC (μg/mL)
[21] = E. faecalis 14, Vancomycin-resistant
[22] = E. faecalis 24, Vancomycin-sensitive, Table 5
[23] = S. epidermis RO7, Methicillin-sensitive, Table 5
[24] = S. epidermis Staph 1, Methicillin-resistant
[25] = S. epidermis TA12, Methicillin-resistant, Table 5

SMILES | MIC [3, 13] | MIC [3, 14] | CC50 at 48 h ([4]; HepG2, 48 hours, Table 1) | other results
Nc1nc2c(ncn2COCCO)c(=O)[nH]1 [Acyclovir] |  |  |  | absorption in man (%) [1, 12]: 30%
CCCCCCCCC[C@@H]1CC(O)=C(C(=O)CCC)C(=O)O1 [Ex. 2A, (R)-3-butyryl-4-hydroxy-6-nonyl-5,6-dihydro-2H-pyran-2-one] | 3.2 to 6.4 µM | 1 to 2 µg/mL |  | CC50 at 48 h [2]: 27 µM
CCCCCCCCC[C@H]1CC(O)=C(C(=O)CCC)C(=O)O1 [Ex. 2B, (S)-3-butyryl-4-hydroxy-6-nonyl-5,6-dihydro-2H-pyran-2-one] | 1.3 to 1.9 µM | 0.4 to 0.6 µg/mL |  | CC50 at 48 h [2]: 25 µM
CCCCCCC/C=C/C1CC(O)=C(C(=O)CCC)C(=O)O1 (centres unmarked) [Ex. 4, (E)-3-butyryl-6-(non-1-en-1-yl)-4-hydroxy-5,6-dihydro-2H-pyran-2-one] | 2.6 to 3.9 µM | 0.8 to 1.2 µg/mL |  | CC50 at 48 h [2]: 36 µM
CCCCCCCCCC1CC(O)=C(C(=O)CC)C(=O)O1 (centres unmarked) [Ex. 5, 4-hydroxy-6-nonyl-3-propionyl-5,6-dihydro-2H-pyran-2-one] | 2.2 µM | 0.65 µg/mL | 50 µM | MIC [5]: 32 to 48 µg/mL (≈ 108 to 162 µM); MIC [6]: ≤ 1 µg/mL; MIC [3, 15]: 0.7 µg/mL; MIC ([3]; LMG15975, Table 4, read-out: MIC (μg/ml) S. aureus): 0.7 µg/mL
CCCCCCCCCC1CC(O)=C(C(C)=O)C(=O)O1 (centres unmarked) [Ex. 9, 3-acetyl-4-hydroxy-6-nonyl-5,6-dihydro-2H-pyran-2-one] | 2.1 to 4.3 µM | 1.5 to 2.5 µg/mL | 71 µM | MIC [5]: > 64 µg/mL; MIC [3, 15]: 1.5 to 2.5 µg/mL
CCCCCCCCCCC1CC(O)=C(C(C)=O)C(=O)O1 (centres unmarked) [Ex. 11, 3-acetyl-6-decyl-4-hydroxy-5,6-dihydro-2H-pyran-2-one] | 2.7 to 4 µM | 0.8 to 1.2 µg/mL | 40 µM | 
CCCCCCCCCC1CC(O)=C(C(=O)CCCCC)C(=O)O1 (centres unmarked) [Ex. 18, 3-hexanoyl-4-hydroxy-6-nonyl-5,6-dihydro-2H-pyran-2-one] | 1.8 to 2.4 µM | 0.6 to 0.8 µg/mL | 15 µM | MIC [5]: 4 to 8 µg/mL (≈ 11.8 to 23.6 µM); MIC [3, 15]: 0.6 to 0.8 µg/mL
CCCC(=O)C1=C(O)CC(CCCCCCCOC)OC1=O (centres unmarked) [Ex. 20, 3-butyryl-4-hydroxy-6-(7-methoxyheptyl)-5,6-dihydro-2H-pyran-2-one] | 64 to 96 µM | 20 to 30 µg/mL | 80 µM | 
CCCC(=O)C1=C(O)CC(CC(C)CCC=C(C)C)OC1=O (centres unmarked) [Ex. 21, 3-butyryl-6-(2,6-dimethylhept-5-enyl)-4-hydroxy-5,6-dihydro-2H-pyran-2-one] | 6.5 to 9.7 µM | 2 to 3 µg/mL |  | 
CCCCCCCCCC1CC(O)=C(C(=O)CCOC)C(=O)O1 (centres unmarked) [Ex. 24, 4-hydroxy-3-(3-methoxypropanoyl)-6-nonyl-5,6-dihydro-2H-pyran-2-one] | 6.1 to 15 µM | 2 to 5 µg/mL |  | 
N#CCCCCCCCC1CC(O)=C(C(=O)CC2CCCCC2)C(=O)O1 (centres unmarked) [Ex. 28, 8-(5-(2-cyclohexylacetyl)-4-hydroxy-6-oxo-3,6-dihydro-2H-pyran-2-yl)octanenitrile] | > 55 µM | > 20 µg/mL |  | 
N[C@@H](Cc1ccccc1)C(=O)O [L-Phenylalanine] |  |  |  | absorption in man (%) [1, 12]: 100%
OC[C@@H](O)[C@@H](O)[C@H](O)[C@H](O)CO [Mannitol] |  |  |  | absorption in man (%) ([1]; in vivo): 16%
CN(Cc1cnc2nc(N)nc(N)c2n1)c1ccc(C(=O)N[C@@H](CCC(=O)O)C(=O)O)cc1 [Methotrexate] |  |  |  | absorption in man (%) ([1]; in vivo): 20%
C/C(=C\C(=O)OCCCCCCCCC(=O)O)C[C@@H]1OC[C@H](C[C@@H]2O[C@H]2[C@@H](C)[C@H](C)O)[C@@H](O)[C@H]1O [mupirocin, reference compound] |  |  |  | MIC [11]: > 256 µg/mL

Second part, led by results:

MIC [3, 13] | MIC [3, 14] | SMILES | CC50 at 48 h ([4]; HepG2, 48 hours, Table 1) | other results
1.2 to 1.8 µM | 0.4 to 0.6 µg/mL | CCCCCCCCCCC1CC(O)=C(C(=O)CCCC)C(=O)O1 (centres unmarked) [Ex. 3, 6-decyl-4-hydroxy-3-pentanoyl-5,6-dihydro-2H-pyran-2-one] | 13 µM | 
4.3 µM | 1.2 µg/mL | CCCCCCCCC1CC(O)=C(C(=O)CC)C(=O)O1 (centres unmarked) [Ex. 6, 4-hydroxy-6-octyl-3-propionyl-5,6-dihydro-2H-pyran-2-one] | 55 µM | 
9.3 µM | 2.5 µg/mL | CCCCCCCCC1CC(O)=C(C(C)=O)C(=O)O1 (centres unmarked) [Ex. 7, 3-acetyl-4-hydroxy-6-octyl-5,6-dihydro-2H-pyran-2-one] | 65 µM | 
1.9 to 2.6 µM | 0.6 to 0.8 µg/mL | CCCCCCCCCCC1CC(O)=C(C(=O)CCC)C(=O)O1 (centres unmarked) [Ex. 12, 3-butyryl-6-decyl-4-hydroxy-5,6-dihydro-2H-pyran-2-one] | 25 µM | MIC [5]: 8 to 16 µg/mL (≈ 24.7 to 49.3 µM); MIC [3, 15]: 0.6 to 0.8 µg/mL
2.7 to 5.1 µM | 0.8 to 1.5 µg/mL | CCCCCCCCC1CC(O)=C(C(=O)CCC)C(=O)O1 (centres unmarked) [Ex. 13, 3-butyryl-4-hydroxy-6-octyl-5,6-dihydro-2H-pyran-2-one] | 30 µM | MIC [5]: 24 to 32 µg/mL (≈ 81 to 108 µM); MIC [3, 15]: 0.8 to 1.5 µg/mL
0.6 to 1.2 µM | 0.2 to 0.4 µg/mL | CCCCCCCCCC1CC(O)=C(C(=O)CC(C)C)C(=O)O1 (centres unmarked) [Ex. 15, 4-hydroxy-3-(3-methylbutanoyl)-6-nonyl-5,6-dihydro-2H-pyran-2-one] | 21 µM | 
0.3 to 0.6 µM | 0.1 to 0.2 µg/mL | CCCCCCCCCCCC1CC(O)=C(C(=O)CCC)C(=O)O1 (centres unmarked) [Ex. 16, 3-butyryl-4-hydroxy-6-undecyl-5,6-dihydro-2H-pyran-2-one] |  | MIC [5]: < 4 µg/mL; MIC [7, 16]: 4 µg/mL (≈ 11.8 µM); MIC [7, 17]: 8 µg/mL (≈ 23.6 µM); MIC [7, 18]: 4 µg/mL (≈ 11.8 µM); MIC [7, 19]: 4 µg/mL (≈ 11.8 µM); MIC [8]: 2 µg/mL (≈ 5.91 µM); CC50 at 48 h [2]: 19 µM; MIC [3, 15]: 0.1 to 0.2 µg/mL; MIC [3, 20]: 0.1 to 0.2 µg/mL; MIC [9, 21]: 1 µg/mL (≈ 2.95 µM); MIC [9, 22]: 1 µg/mL (≈ 2.95 µM); MIC [10, 23]: 0.5 µg/mL (≈ 1.48 µM); MIC [10, 24]: 0.5 µg/mL (≈ 1.48 µM); MIC [10, 25]: 1 µg/mL (≈ 2.95 µM)
0.3 to 0.6 µM | 0.1 to 0.2 µg/mL | CCCCCCCCCCCC1CC(O)=C(C(=O)CCCC)C(=O)O1 (centres unmarked) [Ex. 17, 4-hydroxy-3-pentanoyl-6-undecyl-5,6-dihydro-2H-pyran-2-one] | 12 µM | MIC [6]: ≤ 1 µg/mL; MIC [7, 16]: 16 µg/mL (≈ 45.4 µM); MIC [7, 17]: 8 µg/mL (≈ 22.7 µM); MIC [7, 18]: 4 µg/mL (≈ 11.3 µM); MIC [7, 19]: 8 µg/mL (≈ 22.7 µM); MIC [8]: 1 µg/mL (≈ 2.84 µM); CC50 at 48 h ([4]; HepG2, Table 5): 12 µM; MIC [3, 20]: 0.1 to 0.2 µg/mL; MIC [9, 21]: 1 µg/mL (≈ 2.84 µM); MIC [9, 22]: 1 µg/mL (≈ 2.84 µM); MIC [10, 23]: 0.5 µg/mL (≈ 1.42 µM); MIC [10, 24]: 0.5 µg/mL (≈ 1.42 µM); MIC [10, 25]: 0.5 µg/mL (≈ 1.42 µM)
133 to 166 µM | 40 to 50 µg/mL | CCCC(=O)C1=C(O)CC(CCCCCCCC#N)OC1=O (centres unmarked) [Ex. 19, 8-(5-butyryl-4-hydroxy-6-oxo-3,6-dihydro-2H-pyran-2-yl)octanenitrile] |  | CC50 at 48 h [2]: > 100 µM
22 to 45 µM | 6 to 12 µg/mL | CCCC(=O)C1=C(O)CC(CC2CCCC2)OC1=O (centres unmarked) [Ex. 22, 3-butyryl-6-(cyclopentylmethyl)-4-hydroxy-5,6-dihydro-2H-pyran-2-one] |  | 
29 to 59 µM | 10 to 20 µg/mL | COCCCCCCC1CC(O)=C(C(=O)CC2CCCC2)C(=O)O1 (centres unmarked) [Ex. 23, 3-(2-cyclopentylacetyl)-4-hydroxy-6-(6-methoxyhexyl)-5,6-dihydro-2H-pyran-2-one] |  | 
> 64 µM | > 20 µg/mL | COCCCCCCC1CC(O)=C(C(=O)CC2CC2)C(=O)O1 (centres unmarked) [Ex. 25, 3-(2-cyclopropylacetyl)-4-hydroxy-6-(6-methoxyhexyl)-5,6-dihydro-2H-pyran-2-one] |  | 
1.4 to 2.7 µM | 0.5 to 1 µg/mL | CCCCCCCCCC1CC(O)=C(C(=O)CC2CCOCC2)C(=O)O1 (centres unmarked) [Ex. 26, 4-hydroxy-6-nonyl-3-(2-(tetrahydro-2H-pyran-4-yl)acetyl)-5,6-dihydro-2H-pyran-2-one] |  | 
5.5 to 14 µM | 2 to 5 µg/mL | N#CCCCCCCCC1CC(O)=C(C(=O)CC2CCOCC2)C(=O)O1 (centres unmarked) [Ex. 27, 8-(4-hydroxy-6-oxo-5-(2-(tetrahydro-2H-pyran-4-yl)acetyl)-3,6-dihydro-2H-pyran-2-yl)octanenitrile] |  | 

Source: patent publication US10471043B2, “Compounds and methods of treating bacterial infections” (ULTUPHARMA AB, priority 2015, dated 2019)
